Source: patent US5275708A, “Cetyltrimethylammonium bromide gel electrophoresis” (Thomas Jefferson University, priority 1992, dated 1994)

Assays:
[1] = tested on: Alkaline phosphatase; assay: Alkaline phosphatase activity after detergent solubilization; type: biochemical; settings: 0.5% detergent; compared to SDS; relative to Tx-100 (100%)
Experimental: (§1) FIG. 4 is a graphical depiction of the effect of detergent solubilization on enzyme activities. Enzyme activities were determined in the presence of 0.5% Tx-100, SDS, or CTAB as described in the Examples. The activities were expressed relative to that in Tx-100 solubilized samples (100%). […] Alkaline phosphatase and horseradish peroxidase were purchased from Sigma. Ca^2+ -ATPase activity was measured in microsomes prepared from day-17 chick chorioallantoic membrane, Oakley et al., Anal. Biochem., 105:361-363 (1980). NAD dependent isocitrate dehydrogenase (ICD) and lactate dehydrogenase (LDH) activities were measured in detergent extracts of JEG-3 human choriocarcinoma cells
(§2) Ca^2+ -ATPase activity was assayed by the method of Tuan and Knowles, J. Biol. Chem., 259:2754-2763 (1984), without further modification. Alkaline phosphatase, lactate dehydrogenase, and isocitrate dehydrogenase activities were measured using protocols supplied with their respective diagnostic kits.

[2] = tested on: Ca2+-ATPase; assay: Ca2+-ATPase activity in detergent-solubilized chorioallantoic membrane microsomes; type: biochemical; settings: 0.5% detergent; day-17 chick CAM microsomes; relative to Tx-100 (100%)
Experimental: as §1, §2

[3] = tested on: enzyme activities of various proteins; assay: Enzyme activities of detergent-treated samples after heating; type: biochemical; settings: detergent treated samples heated to 100° C. in the presence of β-mercaptoethanol
Source text: Native protein activity was retained after solubilization in CTAB. Enzyme activities of various proteins in CTAB with their activities when solubilized in SDS, or Tx-100 were compared. […] The relative effect of detergent solubilization on native activity varied from protein to protein and, therefore, must be determined empirically.

[4] = tested on: lactate dehydrogenase (LDH); assay: Lactate dehydrogenase activity in detergent extracts; type: biochemical, human; settings: 0.5% detergent; JEG-3 cell extracts; relative to Tx-100 (100%)
Experimental: as §1, §2

[5] = tested on: horseradish peroxidase; assay: Horseradish peroxidase activity after detergent solubilization; type: biochemical; settings: 0.5% detergent; compared to SDS; relative to Tx-100 (100%)
Experimental: Spectrophotometric Assays. Peroxidase activity was assayed at room temperature using a solution of 0.5 mg/ml diaminobenzidine in 10 mM sodium phosphate buffered 0.9% saline (pH 7.2), containing 0.1% hydrogen peroxide. Reactions were allowed to proceed for 5 minutes, and then were stopped by the addition of 10 mM sodium sulfide to 100 μM. Absorbance at 480 nm was used to determine the degree of product formation.

[6] = tested on: NAD dependent isocitrate dehydrogenase (ICD); assay: NAD dependent isocitrate dehydrogenase activity in detergent extracts; type: biochemical, human; settings: 0.5% detergent; JEG-3 cell extracts; compared to SDS; relative to Tx-100 (100%)
Experimental: as §1, §2

[7] = α-NH2 group; cited from earlier work

| Compound | Enzyme activity (AP) in detergent [1] | Enzyme activity (Ca2+-ATPase) in detergent [2] | Enzyme activity after heating [3] | Enzyme activity (LDH) in detergent [4] | Enzyme activity (HRP) in detergent [5] | Enzyme activity (ICD) in detergent [6] | pKa [7] |
| --- | --- | --- | --- | --- | --- | --- | --- |
| CCCCCCCCCCCCCCCC[N+](C)(C)C.[Br-] [CTAB, Cetyltrimethylammonium bromide] | relatively high levels of enzyme activity | significantly affected | lost all activity | lack of activity | relatively high levels of enzyme activity | relatively high levels of enzyme activity |  |
| CCCCCCCCCCCCOS(=O)(=O)[O-].[Na+] [SDS, sodium dodecylsulfate] |  |  | lost all activity |  |  |  |  |
| NCCCC[C@H](N)C(=O)O [lysine] |  |  |  |  |  |  | ≈ 9.06 |
